# Source: US20230276792A1, “SELECTIVE HERBICIDES BASED ON SUBSTITUTED ISOXAZOLIN CARBOXAMIDES AND CLOQUINTOCET-MEXYL” (Bayer Aktiengesellschaft, priority 2020, published 2023)
# How the values were obtained:
# Format in all cases: in vivo
# [1] = system: spring wheat, TRZAS Triso; experiment: Safener seed treatment, post-emergence herbicide application, crop damage; details: for HER effect + SAF [%] / Reduction [%]: cloquintocet-mexyl 0, 5 g a.i./kg seed; for HER effect [%]: without safener
# From the text: (§1) For safener seed treatment trials, sufficient seed amounts of the respective crops (spring wheat (TRZAS); spring barley (HORVS)) were weighed into screw cap glass bottles with a minimum volume trice of the seeds.
# (§2) As a first step, specified safeners formulated as wettable powder (WP) or wettable granules (WG) were weighed out for the required dosages (g a.i./kg seed), corresponding to the seed amounts. The safener amounts were mixed with a coloured slurry blind formulation type, pre-diluted with milk at 3.5% fat rate (25 mgs slurry formulation plus 2 ml milk per 10 grams of seed). A tube roller was used for coating. The solutions were gradually pipetted each on the rotating seeds followed by coating for min. 3 hours until all liquid had been soaked up by the seeds. Thereafter, the coated seeds were put flat on open trays for drying over night at room temperature.
# (§3) Treated seeds were then placed into pots (7 cm diameter) on the surface of sandy loam, pressed down, flat covered with additional soil and finally covered with sandy soil, also pressed down, watered, and kept under good growth conditions in a greenhouse, until the plants had reached 2-leaf-stage (BBCH 12).
# (§4) At that stage, post-emergence application of the specified herbicides was done on: • a) pot sets containing plants with safener-coated seeds as described above, • b) as a reference, pot sets of plants without seed treatment.
# (§5) The herbicides were formulated as wettable powder (WP). Equivalent to the spray area, compound amounts were weighed out and diluted related to the water application rate (300 l/ha) to an aqueous suspension plus additive (1 l/ha MERO). Dosage related equivalents were conventionally sprayed on trays with the potted plants.
# (§6) After application, the test plants were kept under good growth conditions in a greenhouse. Assessment timings were 10 and 21 days after treatment (DAT) with the herbicide, by visual scoring of the crop damage in % (comparison of untreated with treated plants, either sprayed only with herbicide or with herbicide on plants with treated seeds).
# (§7) Reduction [Difference]=herbicide damage without safener−herbicide damage with safener
# (§8) Reduction [%]=(Reduction [Difference]*100)/herbicide damage without safener
# (§9) b) Plant Species, Variety: TRZAS Triso, Safener (SAF): Cloquintocet-Mexyl
# [2] = system: spring barley, HORVS Montoya; experiment: as above; parameters: key to Reduction [Difference]: % crop damage without safener minus % damage with safener; details: for HER effect + SAF / Reduction [%] / Reduction [Difference]: cloquintocet-mexyl 0, 5 g a.i./kg seed
# From the text: as §1, §2, §3, §4, §5, §6, §7, §8
# (§10) a) Plant Species, Variety: HORVS Montoya, Safener (SAF): Cloquintocet-Mexyl
# [3] = system: spring wheat, TRZAS Triso; experiment: Tank-mix post-emergence crop damage, herbicide with and without safener cloquintocet-mexyl, greenhouse; parameters: key to Reduction [Difference]: percentage points of damage: damage without safener minus damage with safener
# Description: (§11) Seeds of crops (spring wheat, TRZAS; spring barley, HORVS; maize, ZEAMA) were placed in sandy loam soil in peat pots, covered with soil and cultivated in a greenhouse under good growth conditions. Two to three weeks after sowing, the test plants were treated at the 1 to 3-leaf stage. The herbicide/safener active compound combinations according to the invention, formulated as wettable powders or emulsion concentrates, and, in parallel tests, the correspondingly formulated individual active compounds were sprayed onto the green parts of the plants in various dosages using an amount of water of 300 l/ha (converted).
# (§12) The pots were returned under good growing conditions in a glasshouse and a visual assessment of herbicidal effects was made at intervals from 1 to 3 weeks after herbicide application (DAT=days after treatment). Assessment was on a percentage basis in comparison with untreated control plants (0%=no injury, 100%=complete kill).
# as §7, §8, §9
# [4] = system: spring barley, HORVS Montoya; experiment: as above; parameters: key to Reduction [Difference]: damage without safener − damage with safener, % points (0–100% scale); details: cloquintocet-mexyl 100 g a.i./ha
# Description: as §11, §12, §7, §8, §10
# [5] = 10 DAT, HER dose 2 g a.i./ha, cloquintocet-mexyl 50 g a.i./ha
# [6] = 10 DAT, HER dose 32 g a.i./ha, cloquintocet-mexyl 100 g a.i./ha
# [7] = 21 DAT, HER dose 8 g a.i./ha, cloquintocet-mexyl 50 g a.i./ha
# [8] = 21 DAT, HER dose 32 g a.i./ha, cloquintocet-mexyl 100 g a.i./ha
# [9] = 21 DAT, HER dose 1, 5 g a.i./ha
# [10] = 21 DAT, HER dose 1, 5 g a.i./ha, cloquintocet-mexyl 50 g a.i./ha
# [11] = 21 DAT, HER dose 16 g a.i./ha, cloquintocet-mexyl 100 g a.i./ha
# [12] = 10 DAT, HER dose 8 g a.i./ha, cloquintocet-mexyl 50 g a.i./ha
smiles,measurement,setting,value
COCCOC(=O)C1C=CC(NC(=O)C2(C)CC(c3cc(Cl)cc(C#N)c3)=NO2)C1 (stereo not shown) [Example 1.5],HER effect + SAF [%],"[1]; 21 DAT, HER dose 8 g a.i./ha",10%
same,HER effect [%],"[1]; 21 DAT, HER dose 8 g a.i./ha",90%
same,HER effect + SAF [%],"[1]; 21 DAT, HER dose 32 g a.i./ha",30%
same,HER effect [%],"[1]; 21 DAT, HER dose 32 g a.i./ha",95%
same,HER effect + SAF,"[2]; 21 DAT, HER dose 8 g a.i./ha",10%
same,Reduction [%],"[2]; 21 DAT, HER dose 8 g a.i./ha",80%
same,Reduction [Difference],"[2]; 21 DAT, HER dose 8 g a.i./ha",40
same,HER effect + SAF,"[2]; 21 DAT, HER dose 32 g a.i./ha",20%
same,Reduction [%],"[2]; 21 DAT, HER dose 32 g a.i./ha",75%
same,Reduction [Difference],"[2]; 21 DAT, HER dose 32 g a.i./ha",60
same,HER effect + SAF,[3]; [5],20%
same,Reduction [%],[3]; [5],60%
same,Reduction [Difference],[3]; [5],30
C=CC1(C(=O)NC2COC(C(=O)OC)C2)CC(c2cc(C)cc(F)c2)=NO1 (mixture of isomers) [Example 1.71],HER effect + SAF [%],"[1]; 10 DAT, HER dose 8 g a.i./ha",0%
same,HER effect [%],"[1]; 10 DAT, HER dose 8 g a.i./ha",50%
same,HER effect + SAF [%],"[1]; 10 DAT, HER dose 32 g a.i./ha",0%
same,HER effect [%],"[1]; 10 DAT, HER dose 32 g a.i./ha",85%
same,HER effect + SAF,[3]; [6],10%
same,Reduction [%],[3]; [6],88%
same,Reduction [Difference],[3]; [6],75
same,Reduction [%],"[4]; 21 DAT, HER dose 32 g a.i./ha",57%
same,Reduction [Difference],"[4]; 21 DAT, HER dose 32 g a.i./ha",40
C=CC1(C(=O)NC2C=CC(C(=O)O)C2)CC(c2cc(F)cc(F)c2)=NO1 (stereo not shown) [Example 1.58],HER effect + SAF [%],"[1]; 21 DAT, HER dose 2 g a.i./ha",0%
same,HER effect [%],"[1]; 21 DAT, HER dose 2 g a.i./ha",85%
same,HER effect + SAF [%],"[1]; 21 DAT, HER dose 8 g a.i./ha",10%
same,HER effect [%],"[1]; 21 DAT, HER dose 8 g a.i./ha",93%
same,HER effect + SAF [%],"[1]; 21 DAT, HER dose 32 g a.i./ha",20%
same,Reduction [%],"[1]; 21 DAT, HER dose 32 g a.i./ha",78%
same,HER effect [%],"[1]; 21 DAT, HER dose 32 g a.i./ha",93%
same,HER effect + SAF,[3]; [7],50%
same,Reduction [%],[3]; [7],46%
same,Reduction [Difference],[3]; [7],43
same,HER effect + SAF,[3]; [8],60%
same,Reduction [%],[3]; [8],35%
same,Reduction [Difference],[3]; [8],33
C=CC1(C(=O)NC2C=C(C(=O)OCC#N)OC2)CC(c2cc(F)cc(F)c2)=NO1 (stereo not shown) [Example 1.91],HER effect + SAF [%],[1]; [9],20%
same,Reduction [%],[1]; [9],71%
same,HER effect [%],[1]; [9],70%
same,HER effect + SAF [%],"[1]; 21 DAT, HER dose 6 g a.i./ha",30%
same,HER effect [%],"[1]; 21 DAT, HER dose 6 g a.i./ha",90%
same,HER effect + SAF [%],"[1]; 21 DAT, HER dose 24 g a.i./ha",20%
same,Reduction [%],"[1]; 21 DAT, HER dose 24 g a.i./ha",75%
same,HER effect [%],"[1]; 21 DAT, HER dose 24 g a.i./ha",80%
same,Reduction [%],[3]; [10],71%
same,Reduction [Difference],[3]; [10],50
same,Reduction [%],"[3]; 21 DAT, HER dose 24 g a.i./ha, cloquintocet-mexyl 100 g a.i./ha",75%
C=CC1(C(=O)NC2CC=C(C(=O)OC)C2)CC(c2cc(F)cc(F)c2)=NO1 (mixture of isomers) [Example 1.60],HER effect + SAF [%],"[1]; 21 DAT, HER dose 8 g a.i./ha",10%
same,HER effect [%],"[1]; 21 DAT, HER dose 8 g a.i./ha",93%
same,HER effect + SAF [%],"[1]; 21 DAT, HER dose 32 g a.i./ha",10%
same,HER effect [%],"[1]; 21 DAT, HER dose 32 g a.i./ha",95%
same,HER effect + SAF,[3]; [7],70%
same,Reduction [%],[3]; [7],25%
same,Reduction [Difference],[3]; [7],23
same,HER effect,"[3]; 21 DAT, HER dose 8 g a.i./ha, without safener",93%
same,HER effect + SAF,"[4]; 21 DAT, HER dose 8 g a.i./ha",0%
same,Reduction [Difference],"[4]; 21 DAT, HER dose 8 g a.i./ha",80
CC1(C(=O)NC2C=CC(C(=O)OCCCl)C2)CC(c2cc(F)cc(F)c2)=NO1 (mixture of isomers) [Example 1.47],HER effect + SAF [%],"[1]; 21 DAT, HER dose 4 g a.i./ha",10%
same,HER effect [%],"[1]; 21 DAT, HER dose 4 g a.i./ha",30%
same,HER effect + SAF [%],"[1]; 21 DAT, HER dose 16 g a.i./ha",10%
same,HER effect [%],"[1]; 21 DAT, HER dose 16 g a.i./ha",80%
same,HER effect + SAF,"[2]; 21 DAT, HER dose 12 g a.i./ha",0%
same,HER effect,"[2]; 21 DAT, HER dose 12 g a.i./ha, without safener",20%
same,Reduction [Difference],"[2]; 21 DAT, HER dose 48 g a.i./ha",75
same,HER effect + SAF,"[3]; 21 DAT, HER dose 4 g a.i./ha, cloquintocet-mexyl 50 g a.i./ha",0%
same,HER effect + SAF,[3]; [11],5%
same,Reduction [%],[3]; [11],94%
same,Reduction [Difference],[3]; [11],75
COCCOC(=O)C1C=CC(NC(=O)C2(C(F)(F)F)CC(c3cc(F)cc(C#N)c3)=NO2)C1 (stereo not shown) [Example 1.2],HER effect + SAF [%],"[1]; 10 DAT, HER dose 8 g a.i./ha",0%
same,HER effect [%],"[1]; 10 DAT, HER dose 8 g a.i./ha",90%
same,HER effect + SAF [%],"[1]; 10 DAT, HER dose 32 g a.i./ha",10%
same,HER effect [%],"[1]; 10 DAT, HER dose 32 g a.i./ha",90%
same,HER effect + SAF,"[2]; 10 DAT, HER dose 8 g a.i./ha",10%
same,HER effect + SAF,[3]; [12],70%
same,Reduction [%],[3]; [12],22%
same,HER effect + SAF,"[4]; 10 DAT, HER dose 8 g a.i./ha",10%
CC1(C(=O)NC2COC(C(=O)OCc3ccccc3)C2)CC(c2cccc(F)c2)=NO1 (mixture of isomers) [Example 1.79],HER effect + SAF [%],"[1]; 10 DAT, HER dose 6 g a.i./ha",0%
same,HER effect [%],"[1]; 10 DAT, HER dose 6 g a.i./ha",30%
same,HER effect + SAF [%],"[1]; 10 DAT, HER dose 24 g a.i./ha",10%
same,HER effect [%],"[1]; 10 DAT, HER dose 24 g a.i./ha",50%
same,Reduction [%],"[2]; 10 DAT, HER dose 24 g a.i./ha",86%
same,Reduction [Difference],"[2]; 10 DAT, HER dose 24 g a.i./ha",60
same,Reduction [Difference],"[3]; 10 DAT, HER dose 24 g a.i./ha, cloquintocet-mexyl 100 g a.i./ha",50
COC(=O)C1C=CC(NC(=O)C2(C)CC(c3cccc(F)c3)=NO2)C1 (stereo not shown) [Example 1.20],HER effect + SAF [%],"[1]; 10 DAT, HER dose 8 g a.i./ha",0%
same,HER effect [%],"[1]; 10 DAT, HER dose 8 g a.i./ha",20%
same,HER effect + SAF [%],"[1]; 10 DAT, HER dose 32 g a.i./ha",0%
same,HER effect [%],"[1]; 10 DAT, HER dose 32 g a.i./ha",50%
same,Reduction [%],"[2]; 21 DAT, HER dose 32 g a.i./ha",88%
same,Reduction [Difference],"[2]; 21 DAT, HER dose 32 g a.i./ha",70
same,Reduction [%],[3]; [6],80%
same,Reduction [%],"[4]; 21 DAT, HER dose 32 g a.i./ha",88%
same,Reduction [Difference],"[4]; 21 DAT, HER dose 32 g a.i./ha",70
